Consider 71 molecules from US8158621B2, “Methods of treating or preventing autoimmune diseases with 2,4-pyrimidinediamine compounds” (Rigel Pharmaceuticals, Inc., priority 2002, dated 2012).

The first assay relates to Human Jurkat T-cells (clone N). Kind of assay: Jurkat T-cell activation (anti-TCR, CD69 upregulation).
Conditions: not given
In kind it is cell-based. In a few lines: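 Readout is CD69 upregulation by flow cytometry (anti-CD69-APC, 20 min at 4 °C) after 20 h anti-TCR (C305, 500 ng/ml) stimulation at 37 °C.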
The IC50 is the concentration at which inhibition is half-maximal. Lower therefore signals greater potency in that assay. Molecule `N#CCOc1ccc(Nc2ncc(F)c(Nc3cccc(O)c3)n2)cc1` [Compound R945070] yielded an IC50 above 10 µM.
Still for that read-out and setting: for `Cn1nnnc1COc1ccc(Nc2ncc(F)c(Nc3ccc(OCc4nnnn4C)cc3)n2)cc1` [Compound R945048] the value was 2.23 µM; for `Fc1cnc(Nc2ccc(OCc3nn[nH]n3)cc2)nc1Nc1ccc(OCc2nn[nH]n2)cc1` [Compound R945033], above 10 µM.
On the same count and under the same terms, for `CCOC(=O)c1cnc(Nc2ccc3c(c2)NC(=O)CO3)nc1Nc1ccc2c(c1)NC(=O)CO2` [Compound R926325] the value was above 10 µM.
Still for that read-out and setting: for `CNC(=O)COc1cccc(Nc2ncc(F)c(Nc3ccc(C(F)(F)F)cc3)n2)c1` [Compound R926880] the value was 6.24 µM; for `NC(=O)Cn1c(=O)oc2ccc(Nc3ncc(F)c(Nc4ccc5c(c4)OCCO5)n3)cc21` [Compound R926847], 11.8 µM.
Consider `Cc1noc(COc2ccc(Nc3nc(Nc4ccc5c(c4)OCCO5)ncc3F)cc2)n1` [Compound R935145], for which the IC50 came out at 5.34 µM.
Still for that read-out and setting: for `O=[N+]([O-])c1ccc(NCCO)c(Nc2ncc(F)c(Nc3cc([N+](=O)[O-])ccc3NCCO)n2)c1` [Compound R950150] the value was above 10 µM; for `COC(=O)COc1ccc(Nc2ncc(C)c(Nc3ccc(OCC(=O)OC)cc3)n2)cc1` [Compound R926258], above 10 µM; for `CNC(=O)COc1cccc(Nc2ncc(F)c(Nc3ccc4[nH]ncc4c3)n2)c1` [Compound R935279], 1.98 µM.
Still for that read-out and setting: for `CC(C)Oc1ccc(Nc2ncc(F)c(Nc3ccc4c(cnn4C)c3)n2)cc1` [Compound R935203] the value was above 10 µM; for `CNC(=O)COc1cccc(Nc2ncc(F)c(Nc3ccc(OC(C)C)cc3)n2)c1` [Compound R926730], 1.84 µM.
Same read-out and setting: for `CNC(=O)COc1cccc(Nc2ncc(F)c(Nc3cccc(SC(F)(F)F)c3)n2)c1` [Compound R926925] the value was 5.87 µM; for `CCOc1ccc(Nc2nc(Nc3ccc4c(c3)OCCO4)ncc2F)cc1` [Compound R920670], 14.3 µM; for `N#Cc1cnc(Nc2ccc(OCC(=O)N3CCCCC3)cc2)nc1Nc1ccc(OCC(=O)N2CCCCC2)cc1` [Compound R925855], above 10 µM.
`CCOC(=O)COc1cccc(Nc2ncc(F)c(Nc3cc(C)c(O)c(C)c3)n2)c1` [Compound R940253] gave an IC50 of 17.4 µM.
Same read-out and setting: for `O=C(c1cc2cc(Nc3ncc(F)c(Nc4cccc(O)c4)n3)ccc2o1)N1CCOCC1` [Compound R926488] the value was 2.43 µM; for `CCOC(=O)C(C)(C)Oc1cccc(Nc2ncc(F)c(Nc3ccc4c(c3)OCCO4)n2)c1` [Compound R926907], 17.1 µM; for `FC(F)(F)c1cnc(Nc2ccc3c(c2)OCCO3)nc1Nc1ccc2c(c1)OCCO2` [Compound R920669], 19.8 µM.
In turn, `OCCCn1ncc2ccc(Nc3ncc(F)c(Nc4cccc(O)c4)n3)cc21` [Compound R935293] yielded an IC50 of 1.34 µM.
Still for that read-out and setting: for `CNC(=O)COc1cccc(Nc2ncc(F)c(Nc3ccc(OC)c(C(=O)NC)c3)n2)c1` [Compound R940306] the value was 11 µM; for `CNC(=O)COc1cccc(Nc2ncc(F)c(Nc3ccc(OC)c(F)c3)n2)c1` [Compound R926892], 1.64 µM.
In the case of `OCCn1ncc2cc(Nc3nc(Nc4cccc(O)c4)ncc3F)ccc21` [Compound R935259], the IC50 worked out at 3.46 µM.
On the same count and under the same terms, for `Cn1ncc2cc(Nc3ncc(F)c(Nc4cccc(O)c4)n3)ccc21` [Compound R935194] the value was 0.732 µM.
For `CCOC(=O)COc1ccc(Nc2nc(Nc3ccc(OCC(=O)OCC)cc3)c(NC(=O)NC(=O)CCl)c(C(=O)OCC)n2)cc1` [Compound R926589], the IC50 was above 10 µM.
The molecule `OCCOc1cccc(Nc2ncc(F)c(Nc3ccc(CO)c(CO)c3)n2)c1` [Compound R940292] yielded an IC50 of 2.78 µM.
For `Oc1cccc(Nc2nc(Nc3cc(Br)cc(C(F)(F)F)c3)ncc2F)c1` [Compound R926846], the IC50 is above 10 µM.
As for `CC(C)(C)OC(=O)COc1ccc(Nc2nc(Cl)c(Cl)c(Nc3ccc(OCC(=O)OC(C)(C)C)cc3)n2)cc1` [Compound R926576], the IC50 was above 10 µM.
The same measure, in the same setting: for `COC(=O)COc1ccc(Nc2nc(Nc3ccc(OCC(N)=O)cc3)ncc2F)cc1` [Compound R945060] the value was 6.08 µM.
Same read-out and setting: for `CNC(=O)COc1cc(Nc2ncc(F)c(Nc3cccc(O)c3)n2)ccc1C` [Compound R926757] the value was 2.74 µM.
The molecule `COc1cc(-c2ccccc2)c(C)cc1Nc1ncc(F)c(Nc2cc(C)c(-c3ccccc3)cc2OC)n1` [Compound R926401] displayed an IC50 above 10 µM.
With `COC(=O)c1cc2cc(Nc3ncc(F)c(Nc4ccc5cnn(CCC(=O)O)c5c4)n3)ccc2o1` [Compound R935296], the IC50 is above 10 µM.
On the same count and under the same terms, for `COc1cccc(Nc2nc(Nc3cccc(OCC(=O)NCC(O)CO)c3)ncc2F)c1` (centres unmarked) [Compound R926739] the value was 2.09 µM; for `CNC(=O)COc1cccc(Nc2ncc(F)c(Nc3cnc4c(c3)OCCN4)n2)c1` [Compound R945263], 4.47 µM; for `Oc1cccc(Nc2ncc(F)c(Nc3ccc(OCCN4CCOCC4)cc3)n2)c1` [Compound R926710], 4.27 µM.
Still for that read-out and setting: for `CC(C)c1cccc(Nc2nc(Nc3cccc(OCCO)c3)ncc2F)c1` [Compound R940289] the value was 3.65 µM.
`CC(C)Oc1ccc(Nc2nc(Nc3ccc(OCc4nc(-c5ccccc5)no4)cc3)ncc2F)cc1` [Compound R935135] returned an IC50 above 10 µM.
Same read-out and setting: for `O=C(CNc1cccc(Nc2ncc(F)c(Nc3cccc(NCCO)c3)n2)c1)NCCN1CCOCC1` [Compound R950239] the value was above 10 µM; for `N#CCOc1ccc(Nc2nc(Nc3ccc(OCC(=O)O)cc3)ncc2F)cc1` [Compound R945097], above 10 µM; for `CC1Sc2ccc(Nc3ncc(F)c(Nc4cccc(O)c4)n3)cc2NC1=O` (racemic) [Compound R909263], 6.2 µM.
With `CCOC(=O)C(C)Oc1ccc(Nc2ncc(C)c(Nc3ccc(OC(C)C(=O)OCC)cc3)n2)cc1` (racemic) [Compound R926259], the IC50 turned out to be 13 µM.
Turning to `CNCCOc1cccc(Nc2ncc(F)c(Nc3ccc4c(c3)OCCO4)n2)c1` [Compound R926510], the IC50 was 0.122 µM.
Same read-out and setting: for `CC1(C)COC(COc2ccc(Nc3ncc(F)c(Nc4cccc(O)c4)n3)cc2)=N1` [Compound R926702] the value was 18.6 µM.
Consider `CNC(=O)COc1cccc(Nc2ncc(F)c(Nc3ccc(C)c(O)c3)n2)c1` [Compound R926753], for which the IC50 stood at 0.393 µM.

The same assay, now with this note: Homo sapiens.
Molecule `Cc1ccc(Nc2ccnc(Nc3ccc(C)c([N+](=O)[O-])c3)n2)cc1[N+](=O)[O-]` [Compound R950153] had an IC50 above 10 µM.

The same assay, now with this note: Homo sapiens, Jurkat.
With `Cc1ccc(CNc2ncc(F)c(Nc3ccc4c(c3)OCCO4)n2)cc1Cl` [Compound R908696], the IC50 was above 10 µM.
On the same count and under the same terms, for `Oc1cccc(Nc2nc(Nc3cc(Cl)c(O)c(Cl)c3)ncc2F)c1` [Compound R926890] the value was 11.3 µM; for `COc1cc(-c2ccccc2)c(C)cc1Nc1ccnc(Nc2cc(C)c(-c3ccccc3)cc2OC)n1` [Compound R925808], above 10 µM.
The same measure, in the same setting: for `CCOC(=O)C1CCN(C(=O)c2cccc(Nc3ncc(F)c(Nc4cccc(O)c4)n3)c2)CC1` [Compound R926939] the value was above 10 µM.
Still for that read-out and setting: for `Oc1ccc(CCNc2ncc(F)c(NCCc3ccc(O)cc3)n2)cc1` [Compound R925791] the value was above 10 µM.
As for `Cc1ccc(F)c(Nc2ncc(F)c(Nc3ccc4c(c3)OCCO4)n2)c1` [Compound R926897], the IC50 was above 10 µM.
Same read-out and setting: for `COCCNc1ncc(F)c(Nc2ccc3c(c2)OCCO3)n1` [Compound R926229] the value was above 10 µM; for `CC(C)Oc1ccc(Nc2nc(Nc3ccc(OCC(O)CO)cc3)ncc2F)cc1` (centres unmarked) [Compound R935175], 1.74 µM; for `CC(C)Oc1ccc(Nc2ncc(F)c(Nc3ccc(OC(C)C)cc3)n2)cc1` [Compound R926701], above 10 µM.
Same read-out and setting: for `C=CCNc1ncc(Br)c(Nc2cccc(O)c2)n1` [Compound R925822] the value was above 10 µM; for `CCOC(=O)CNc1nc(NCC(=O)OCC)c([N+](=O)[O-])c(C(=O)OCC)n1` [Compound R925864], 19.1 µM; for `Oc1cccc(Nc2ncc(F)c(NC3c4ccccc4-c4ccccc43)n2)c1` [Compound R935020], above 10 µM.
Still for that read-out and setting: for `Oc1ccc(Nc2ncc(F)c(Nc3ccc(O)c(F)c3)n2)cc1F` [Compound R926681] the value was 2 µM; for `COC(=O)c1cc2cc(Nc3ncc(F)c(Nc4ccc5oc(C(=O)OC)cc5c4)n3)ccc2o1` [Compound R926604], above 10 µM.
The molecule `N#Cc1cccc(Nc2ncc(F)c(Nc3cccc(C#N)c3)n2)c1` [Compound R945051] showed an IC50 above 10 µM.
In the case of `Fc1ccc(Nc2ncc(F)c(Nc3ccc4c(c3)OCCO4)n2)cc1Cl` [Compound R926218], the half-inhibitory concentration (IC50) is above 10 µM.
On the same count and under the same terms, for `Oc1cccc(Nc2ncc(F)c(Nc3ccc4ncccc4c3)n2)c1` [Compound R927019] the value was above 10 µM.
The same measure, in the same setting: for `COC(=O)C=C1C=CC=C(Nc2ncc(F)c(NC3=CC=CC(=CC(=O)OC)C3)n2)C1` [Compound R935114] the value was above 10 µM; for `Nc1nc(N(CC(O)c2ccccc2)c2ccc3c(c2)OCCO3)ncc1F` (centres unmarked) [Compound R925765], above 10 µM.
Still for that read-out and setting: for `CC(C)c1ccc(Nc2ncc(F)c(Nc3ccc4c(c3)OCCO4)n2)cc1` [Compound R926790] the value was above 10 µM; for `Nc1cccc(Nc2ncc(F)c(Nc3cccc(O)c3)n2)c1` [Compound R950227], 7.11 µM; for `COc1ccc(Nc2ncc(F)c(Nc3ccc(OC)c(C(=O)O)c3)n2)cc1C(=O)O` [Compound R945067], above 10 µM.
In the case of `CC(C)Oc1ccc(Nc2nc(Nc3ccc(C(C)(C)CO)cc3)ncc2F)cc1` [Compound R935151], it took 1.96 µM to reach half-maximal inhibition (IC50).
Still for that read-out and setting: for `CCOC1CCCc2ccc(Nc3nc(Nc4cccc(O)c4)ncc3F)cc21` (centres unmarked) [Compound R926942] the value was above 10 µM.
Molecule `CC1(Cl)CC(Nc2ncc(F)c(Nc3ccc4c(c3)-n3ccnc3CO4)n2)=CC=C1O` (centres unmarked) [Compound R935263] yielded an IC50 of 2.02 µM.
Still for that read-out and setting: for `Fc1cnc(NCC2COc3ccccc3O2)nc1Nc1ccc2c(c1)OCCO2` (centres unmarked) [Compound R950206] the value was above 10 µM.
